How the values were obtained:
ADO-Co^2+ = target: T1, ADO-Co^2+ (Homo sapiens, UniProt Q96SZ5); test: SPR binding (single cycle kinetics) to cobalt-substituted ADO; settings: 4 °C, significantly slower off-rate
T1 construct: Full-length human ADO (UniProt ID: Q96SZ5) was cloned; made in house; host or cells: Rosetta2(DE3) Escherichia coli, M9 minimal media with 0.2 mM Co2+ or Zn2+
T1 sequence (Q96SZ5 1-270): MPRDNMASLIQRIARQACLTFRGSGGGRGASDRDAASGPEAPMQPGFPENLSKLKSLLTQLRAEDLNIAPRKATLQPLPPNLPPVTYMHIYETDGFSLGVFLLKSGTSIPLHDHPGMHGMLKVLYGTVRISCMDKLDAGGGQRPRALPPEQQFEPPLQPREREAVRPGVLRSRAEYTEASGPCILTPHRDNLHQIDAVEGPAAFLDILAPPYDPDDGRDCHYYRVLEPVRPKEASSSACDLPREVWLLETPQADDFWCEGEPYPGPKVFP
Method: To study if different metals can compensate for the inherent iron cofactor, zinc (Zn^2+) and cobalt (Co^2+) substituted ADO was produced through minimal media expression, validated by ICP-MS, and analyzed for binding by SPR (Fig. 2E).
(§1) SPR measurements were made using a Biacore T200 (Cytiva) instrument and data were analyzed using the Biacore Insight Evaluation Software (Cytiva; https://www.cytivalifesciences.com/en/us/shop/protein-analysis/spr-label-free-analysis/spr-software-and-extensions/biacore-insight-evaluation-software-p-23528). Biotinylated-ADO was immobilized on a Biotin CAP chip (Cytiva) with a target density of ∼2500 to 3000 RU and peptide/protein substrates were injected over the chip. […] A buffer comprising 20 mM Hepes pH 7.5, 500 mM NaCl, 10 mM DTT, and 0.1% (v/v) tween-20 was used as the running buffer at a flow rate of 50 μl/min.

ADO-H193D = target: T2, ADO-H193D (Homo sapiens, UniProt Q96SZ5, H193D); test: SPR binding to metal-deficient ADO-H193D mutant; settings: 4 °C
T2 construct: Full-length human ADO (UniProt ID: Q96SZ5) was cloned; made in house; host or cells: Rosetta2(DE3) Escherichia coli
T2 sequence (Q96SZ5 1-270 H193D): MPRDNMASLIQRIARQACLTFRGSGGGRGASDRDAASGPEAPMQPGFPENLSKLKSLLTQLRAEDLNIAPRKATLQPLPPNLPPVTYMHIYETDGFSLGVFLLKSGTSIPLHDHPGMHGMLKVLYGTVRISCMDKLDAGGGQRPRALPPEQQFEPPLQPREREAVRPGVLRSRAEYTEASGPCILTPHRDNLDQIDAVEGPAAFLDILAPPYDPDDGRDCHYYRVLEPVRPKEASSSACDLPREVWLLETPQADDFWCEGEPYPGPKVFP
Text: To further validate the importance of metal coordination in protein substrate binding, an ADO-H193D mutant, which is known to impair iron retention, was generated (Fig. S1B). A significant reduction in metal occupancy was confirmed by ICP-MS (Fig. 2C). This correlated with a low SPR-binding response of approximately ∼2 to 3 RU, indicating a reduced population of substrate-binding ADO on the chip relative to the total amount of immobilized ADO (Figs. 2D and S5D). Furthermore, the calculated Kᴅ values with native RGS5 and IL32 peptides were ∼13-fold and ∼77-fold weaker, respectively, than the interactions with WT ADO (Table S3).
as §1

[1] = target: T3, ADO (2-aminoethanethiol dioxygenase), iron-bound wild type (Homo sapiens, UniProt Q96SZ5); test: SPR binding of peptide/protein substrates to immobilised ADO
T3 construct: Full-length human ADO (UniProt ID: Q96SZ5) was cloned; made in house; host or cells: Rosetta2(DE3) Escherichia coli
T3 sequence (Q96SZ5 1-270): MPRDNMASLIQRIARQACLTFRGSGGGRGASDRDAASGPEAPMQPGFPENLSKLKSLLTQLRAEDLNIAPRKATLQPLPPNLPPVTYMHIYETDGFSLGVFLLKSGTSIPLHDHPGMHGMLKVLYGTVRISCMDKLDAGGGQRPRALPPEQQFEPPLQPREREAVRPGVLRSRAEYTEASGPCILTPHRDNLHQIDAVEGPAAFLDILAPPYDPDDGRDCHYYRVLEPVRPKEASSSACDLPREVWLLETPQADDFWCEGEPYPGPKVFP
Text: ADO catalyzes the O2-dependent sulfinylation of Nt-cys residues, which reportedly bind to the iron cofactor in a monodentate arrangement through ligation of the thiol group ([14], [15]). To test the importance of Nt-cys modifications and substitutions on ADO association, a SPR assay was established. […] Data collected under steady state conditions is presented in the main text and kinetic constants are provided in the Tables S1–S8 (alongside steady state measurements). All measurements were collected at 4 °C to minimize enzyme activity.
as §1
For metal-chelation experiments, a mixture of 10 mM 1, 10-phenanthroline and 100 mM EDTA (pH 8) was injected onto the chip using 10 × 60 s injections at a 100 μl/min flow rate. […] The instrument and chip were primed into buffer excluding reducing agents before conducting metal chelation and iron reconstitution.

ADO = target: T4, ADO (Homo sapiens, UniProt Q96SZ5); test: LC-MS enzyme activity assay (Nt-cys sulfinylation by ADO); format: biochemical; settings: 100 μM peptide, 0.1 μM ADO, 37 °C, 45 s and 1 h incubations
T4 construct: Full-length human ADO (UniProt ID: Q96SZ5) was cloned; made in house; host or cells: Rosetta2(DE3) Escherichia coli
T4 sequence (Q96SZ5 1-270): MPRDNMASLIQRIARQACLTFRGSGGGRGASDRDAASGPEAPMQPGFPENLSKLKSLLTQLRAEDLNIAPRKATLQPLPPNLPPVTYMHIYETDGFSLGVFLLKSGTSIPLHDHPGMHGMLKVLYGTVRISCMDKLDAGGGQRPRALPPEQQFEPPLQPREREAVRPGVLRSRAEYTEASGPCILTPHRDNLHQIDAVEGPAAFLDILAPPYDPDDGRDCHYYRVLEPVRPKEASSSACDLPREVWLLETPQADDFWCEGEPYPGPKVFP
Method: […] Otherwise stated, the reaction buffer contained 50 mM Tris pH 7.5, 50 mM NaCl, and 5 mM TCEP. The reactions were quenched by mixing the sample 1:10 (peptide) or 1:5 (protein) with 1% formic acid (v/v).
Peptide and protein samples were injected onto a Chromolith RP-18 Endcapped HPLC Columns (100–2 mm; Merck) and Discovery BIO Wide Pore C5 HPLC Column (Supelco), respectively, heated to 40 °C and eluted at 0.3 ml/min using a gradient of 95% deionized water supplemented with 0.1% (v/v) formic acid to 95% acetonitrile. Oxidation was monitored by an ultra high-performance liquid chromatography MS using ExionLC AD (Sciex) and SelexION (Sciex) mass spectrometer operated in a positive electrospray TOF (+ESI-TOF) mode. Instrument parameters, data acquisition and data processing were controlled by Analyst software (Sciex; https://sciex.com/products/software/analyst-software). The peptide data processing was performed using Skyline software (MacCoss Lab Software; https://skyline.ms/project/home/software/Skyline/begin.view) ([38]). All figures and parameters were generated using GraphPad Prism 9 (GraphPad; https://www.graphpad.com/features).

[2] = target: 2-aminoethanethiol (cysteamine) dioxygenase (ADO), biotinylated, for SPR (human) (UniProt Q96SZ5); test: SPR; Biacore T200; biotinylated ADO immobilized on a Biotin CAP chip (∼2500 to 3000 RU), peptide/protein substrates injected; 4 °C; 20 mM Hepes pH 7.5, 500 mM NaCl, 10 mM DTT, 0.1% tween-20; 50 μl/min; multicycle, equilibrium steady state affinity 1:1 binding model

| Fold increase in binding affinity with ADO-Co^2+ relative to native ADO (ADO-Co^2+) [fold] | Fold weaker KD with ADO-H193D than with WT ADO (ADO-H193D) [fold] | Kd ([1]; SPR steady state, 1:1 binding model, biotinylated ADO on Biotin CAP chip, 4 °C, 20 mM Hepes pH 7.5, 500 mM NaCl, 10 mM DTT, 0.1% tween-20, geometric mean (± SD) of minimum three independent measurements, read-out: Equilibrium dissociation constant KD) [nM] | Maximum response (Rmax) ([1]; SPR, ADO prior to chelation treatment) [RU] | Loss in Rmax following chelation of the immobilized ADO-bound metal ([1]; SPR, after 10 mM 1,10-phenanthroline and 100 mM EDTA) [%] | Oxidation (sulfinylation, +32 Da) by ADO (ADO) | Kd [2] [nM] | Substance |
| --- | --- | --- | --- | --- | --- | --- | --- |
| ~10 | ~77 | 270 ± 5 | ~20 | ~80 | could be oxidized by ADO | – | H-CFPKVLSDDMKKLK-NH2 (C-terminus assumed) [IL32] |
| – | – | – | – | – | – | 1200 | RGS5 dipeptide (di-RGS5) (from UniProt O15539 2-3) |
| – | – | – | – | – | – | 460 | RGS5 tripeptide (tri-RGS5) (from UniProt O15539 2-4) |
